# Experimental data as given in patent US9238034B2, “FN14 antagonists and therapeutic uses thereof” (THE TRANSLATIONAL GENOMICS RESEARCH INSTITUTE, priority 2013, dated 2016).
# Where two headings read alike, the source gives them in different places.
# Legend:
# [1] = biological target: T1, Fn14-TWEAK binding (Homo sapiens, UniProt Q9NP84); assay: Double sandwich ELISA small molecule screening of TWEAK binding to captured Fn14-Fc
# T1 construct: the human Fc fragment-tagged Fn14 extracellular domain (R&D Systems) was captured; purchased R&D Systems (Fn14-Fc); Peprotech (recombinant TWEAK)
# T1 sequence (Q9NP84 28-80 limits assumed): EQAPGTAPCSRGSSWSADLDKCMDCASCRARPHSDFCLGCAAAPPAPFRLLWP
# Description: Double Sandwich ELISA. sTWEAK and sTWEAK variant proteins were synthesized as described above. The expression level of each IVTT synthesized sTWEAK protein was analyzed by western blot analysis and used in approximately equal amounts in the ELISA. To assay the binding of wild type sTWEAK and sTWEAK variants to Fn14, the human Fc fragment-tagged Fn14 extracellular domain (R&D Systems) was captured in an Immuno 96-microwell white plate by adding 100 μL of 0.025 μg/mL Fn14-Fc to wells coated with goat anti-human Fcγ fragment specific monoclonal antibody. After capture, the wells were washed 3× with Dulbecco's Phosphate Buffered Saline (DPBS) containing 0.05% Tween-20. Unbound sites were blocked by addition of 100 μL of blocking solution containing 0.05% Tween-20, 1% BSA, and 3% normal goat serum (NGS) in DPBS for 1 hr at room temperature. 0.01 μL of sTWEAK or sTWEAK variant made with the human IVTT kit or 2 μL of sTWEAK or sTWEAK variant made with the rabbit IVTT kit was diluted in 100 μL of sample diluent (DPBS+1% BSA+0.005% Tween-20) and then added to the wells for 2 hr followed by addition of 100 μL of 50 ng/mL biotinylated TWEAK detection antibody (R&D Systems) in sample diluent. Following incubation for additional 2 hr at room temperature, wells were washed 3× with DPBS containing 0.05% Tween-20 and bound biotinylated TWEAK antibody was detected by incubation with an HRP-conjugated streptavidin. The total luminescent signal was obtained using Femto ELISA kit (Pierce Biochemical) and compared to the standard curve signal obtained from the binding of 0-4000 pg/mL recombinant TWEAK (Peprotech inc) to Fn14-Fc. Using 5-parameter logistic curve fitting for standard curve analysis (Sigmaplot 11.0, SyStat Software Inc.), binding of sTWEAK or TWEAK variant to Fn14-Fc was determined. The data represents that observed for at least four replicate assays.
# The small molecule screening was performed using the ELISA assay described above with minor modifications. Briefly, after capturing Fn14-Fc in the microwell plate, 80 μl of drug solution in sample diluent was added to desired wells and incubated for 2 hrs at room temperature. Subsequently, 20 μL of 2500 pg/mL (5×) TWEAK was added to each well to achieve final TWEAK concentration of 500 pg/mL and incubated for additional 2 hr at room temperature. Bound TWEAK was detected as described in the protocol above. All small molecule inhibitors were screened at 25 μM final concentration (final DMSO concentration of 0.125%) in duplicate. Cyclohexamide, a non-specific small molecule, at 25 μM concentration was used as negative control. The anti-Fn14 antibody ITEM-4, added at 2.5 μg/mL, was used as a positive control for complete blockade of TWEAK binding. Reduction in TWEAK binding due to compound addition or controls was calculated by using standard curve (Separate standard curve was obtained for every screening plate).
# [2] = system: TWEAK-Fn14 signaling pathway; assay: TWEAK induced Fn14-NF-κB Luc assay, optimized 384-well HTS format; assay type: cell-based, human; details: 1000 cells/well, 40 ng/mL TWEAK 8 hr, 1 hr pre-incubation
# Excerpt: Human embryonic kidney cells (HEK293) express low levels of the Fn14 receptor. We developed a cell-based assay for the Fn14-TWEAK pathway signaling events using HEK293 cells that stably co-expresses high levels of full length Fn14 receptor and a firefly luciferase reporter driven by NF-KB-response elements (Fn14-NF-KB-Luc).
# We optimized HEK293 Fn14-NF-KB Luc cell line for HTS by testing TWEAK-stimulated Luc-reporting as a function of growth medium, TWEAK concentration, induction time, assay duration, cell density, and DMSO concentration. For example, we seeded HEK293 Fn14-NF-KB-Luc and control cells (HEK293 NFKB-Luc) into a 96-well plate at a density of 10,000 cells/well, in DMEM or Opti-MEM® (Reduced serum media, protein concentration 15 μg/mL) and incubated at 37 C for 24 or 48 h. We then induced them with various concentrations of TWEAK in buffer or buffer alone (PBS+1 mg/mL BSA) for 5 hr and then measured firefly luciferase levels by chemiluminescence (Bright-Glo™ Promega). […] These initial conditions formed the basis for transfer of the assay into a 384-well format and further optimization with respect to cell seeding density, induction time, and TWEAK concentration.
# We achieved the same conclusion from both 96-well and 384-well format that signal-to-background and fold-inductions are increased with increasing TWEAK concentration, peaking between 40-80 ng/mL and decreased at 100 ng/mL (FIGS. 20A and 20B). […] These conditions were further refined with respect to cell density (500-2500 cells per well), induction time (4-8 hr), and two TWEAK concentrations over a series of experiments in 384-well formats.
# In the majority of seeding density conditions and two different TWEAK concentrations, the assay performance improved with increasing TWEAK induction time. At 8 hours of TWEAK stimulation, the fold induction (S/B) and Z′ factor was approximately 8-fold and 0.8, respectively, and the average % CV was 6.8%. […]
# [3] = Table 3, first round of screening, 25 μM, average of duplicate, read-out: % Reduction in TWEAK Binding, Average
# [4] = Table 3, first round of screening, 25 μM, replicate 1, read-out: % Reduction in TWEAK Binding, Data 1
# [5] = Table 3, first round of screening, 25 μM, replicate 2, read-out: % Reduction in TWEAK Binding, Data 2
# [6] = Table 5, 25 μM, average of duplicate, read-out: % Reduction in TWEAK Binding, Average
# [7] = Table 5, 25 μM, replicate 1, read-out: % Reduction in TWEAK Binding, Data 1
# [8] = Table 5, 25 μM, replicate 2, read-out: % Reduction in TWEAK Binding, Data 2
# [9] = first round of screening, 25 μM, read-out: average inhibition in TWEAK-Fn14 binding
# [10] = Table 4, second screening iteration, 25 μM, average of duplicate, read-out: % Reduction in TWEAK Binding, Average
# [11] = Table 4, second screening iteration, 25 μM, replicate 1, read-out: % Reduction in TWEAK Binding, Data 1
# [12] = Table 4, second screening iteration, 25 μM, replicate 2, read-out: % Reduction in TWEAK Binding, Data 2
SMILES,"inhibition at 25 µM [1, 3] [%]","inhibition at 25 µM [1, 4] [%]","inhibition at 25 µM [1, 5] [%]","inhibition at 25 µM [1, 6] [%]","inhibition at 25 µM [1, 7] [%]","inhibition at 25 µM [1, 8] [%]","inhibition at 25 µM [1, 9] [%]","inhibition at 25 µM [1, 10] [%]","inhibition at 25 µM [1, 11] [%]","inhibition at 25 µM [1, 12] [%]","% Reduction in TWEAK Binding, Average ([1]; Table 4, second screening iteration, 25 μM, average of duplicate) [%]","% Reduction in TWEAK Binding, Data 1 ([1]; Table 4, second screening iteration, 25 μM, replicate 1) [%]","% Reduction in TWEAK Binding, Data 2 ([1]; Table 4, second screening iteration, 25 μM, replicate 2) [%]",effect on TWEAK induced Fn14-NF-κB Luc signal [2]
O=C(CSc1nc2c(cnn2-c2ccccc2)c(=O)[nH]1)NCc1ccc2c(c1)OCO2 [Compound G873-0032],20.4,26.3,14.5,20.4,26.3,14.5,> 15,,,,,,,
Cc1cc(C2CCCN2C(=O)c2cc(-c3ccc4c(c3)OCO4)on2)on1 (stereo not shown) [Compound J004-1091],15,23.1,6.98,15,23.1,6.98,> 15,,,,,,,
COc1cccc(NC(=O)CSc2nnc(-c3ccc(F)cc3)c(-c3ccc(F)cc3)n2)c1 [Compound K216-0906],,,,16.6,17.2,16,,16.6,17.2,16,,,,
COc1cccc(NC(=O)CSc2nnc(-c3ccc(Cl)cc3)c(-c3ccc(Cl)cc3)n2)c1 [Compound K216-0957],,,,24,23.8,24.3,,24,23.8,24.3,,,,
O=C(CSc1nnc(-c2ccccc2)c(-c2ccccc2)n1)Nc1cccc(Cl)c1 [Compound K784-2268],,,,17,24,10.1,,17,24,10.1,,,,
O=C(CSc1nnc(-c2ccccc2)c(-c2ccccc2)n1)Nc1ccccc1Cl [Compound K784-2269],,,,,,,,,,,9.52,10.8055,8.234,
COc1cccc(NC(=O)CSc2nnc(-c3ccccc3)c(-c3ccccc3)n2)c1 [Compound K784-2273],,,,10.5,10.5,,,10.5,10.5,,,,,
O=C(c1cn(-c2cccc(Cl)c2)nn1)N1CCCC1 [Compound L524-0322],,,,11.6,17,6.27,,11.6,17,6.27,,,,
O=C(NC1CC1)c1cn(-c2cccc(Cl)c2)nn1 [Compound L524-0361],,,,15.7,14.7,16.7,,15.7,14.7,16.7,,,,
NC(=O)C1CCCN(c2nc3c(-c4ccccc4)csc3c(=O)[nH]2)C1 (stereo not shown) [Compound Z250-1266],11.8,16.2,7.41,11.8,16.2,7.41,,,,,,,,
Cc1ccc(-c2csc3c(=O)[nH]c(N4CCCC(C(N)=O)C4)nc23)cc1 (stereo not shown) [Compound Z250-1348],13.3,16.6,9.99,13.3,16.6,9.99,,,,,,,,
"C[C@@H]1C[C@H]2[C@@H]3CCC4=CC(=O)C=C[C@]4(C)[C@@]3(F)[C@@H](O)C[C@]2(C)[C@@]1(O)C(=O)CO [Dexamethasone, dexamethasone]",,,,,,,,,,,,,,no effect
